# Several values for one entry are separate records, joined by “and”; a condition that tells them apart may be missing. Equal values may be shown once.
# Tests used:
# SNU-354 cells [1] = experiment: 3H-thymidine incorporation assay; assay type: cell-based, human; conditions: 18˜24 hours
# Description: SNU-354 cells were distributed in a 6-well plate at the density of 5×10^4 cells/well, followed by culture in FBS-free medium for 24 hours. 24 hours later, the medium was replaced with the fresh one supplemented with FBS, the compounds of Examples 1 and 2 at different concentrations and 1 μCi/mL [^3H]dT (GE Healthcare, UK). 18˜24 hours later, the cells were washed with cold PBS and then fixed with cold 5% trichloroacetic acid. DNA was lysed in […] sodium hydroxide at 37° C. for 1 hour. Then, [^3H]dT incorporated during intracellular DNA synthesis was measured by LSC (liquid scintillation counting). Intracellular DNA synthesis measured above was used as index for the evaluation of cell viability.
# SNU-354 cells [2] = experiment: Flow cytometry, sub G1 ratio change (Experimental Example 3); assay type: cell-based, human; conditions: 10 μM, 24 hours, vehicle = 1.0
# Description: SNU-354 cells were seeded in a 90 mm dish, to which vehicle and the compounds of Examples 2˜6 were treated at the concentration of 10 μM each for 24 hours. The cells were collected and washed with cold PBS, followed by reaction in 500 μl of cold 70% ethanol at 4° C. for overnight to fix the cells. The cells were washed with 500 μl of PBS three times, followed by reaction with 500 μl of PBS containing 50 μg/mL propidium iodide (P1) and 50 μl of 1 mg/mL RNAse A at room temperature for 30 minutes in the darkness. Fluorescence of the P1 stained cell was measured by using FACS caliber flow cytometer and cell quest program (Becton Dickinson Immunocytometry Systems, CA, USA). Sub G1 ratio changes of SNU-354 cells induced by the compounds were measured by FACS analysis.
# [3] = tested on: SNU-354 xenografted tumor; experiment: TUNEL assay and cleaved caspase-3 immunohistochemistry of xenografted tumor; assay type: in vivo, nude mice; conditions: 4 and 20 mg/kg vs control; FIG. 23-A
# Description: All the xenografted tumors and liver tissues extracted above were fixed in 36% formaldehyde solution (Junsei Chemical Co., Ltd, Tokyo, JAPAN), followed by paraffin embedding. The embedded tissues were cut into 5 μm sections. H&E staining and TUNEL assay were performed for examining apoptosis with those sections. The expression of cleaved caspase-3 in the tissue section was measured by using cleaved caspase-3 monoclonal antibody (Cell Signaling, MA, USA). ABC peroxidase (Dako Cytomation California, Inc., CA, USA) labeling was performed for immunological sensitization and the results are shown in FIG. 23. As shown in FIG. 23-A, TUNEL positive spots and caspase-3 positive spots were observed more in the group treated with the compound of Example 2 than in the control. […] As shown in FIG. 23-B, it was investigated whether or not the compound of Example 2 could affect normal liver tissues.
# Cdk1/cyclin B = target: T1, Cdk1/cyclin B (Homo sapiens, UniProt P06493); experiment: In vitro kinase activity assay, histone H1 phosphorylation by Cdk1/cyclin B; assay type: biochemical; conditions: for Phosphorylation (%) Cdk1: 0 nM = 100%
# T1 construct: purchased Upstate
# Description: To kinase assay buffer (50 mM Tris (pH 7.4), 10 mM magnesium chloride, 1 mM EGTA, 40 mM β-glycerophosphate, 0.1 mM Na3VO4, 1 mM DTT, 0.1 μg/mL leupeptin, 0.1 μg/mL pepstatin A, 0.1 μg/mL antipain and 1 mM phenylmethylsulfonyl fluoride) were added 5 μg histone H1 as a substrate, 20 ng Cdk1/cyclin B or 40 ng Cdk2/cyclin A recombinant protein (Upstate, NY, USA) as an enzyme, 2.5 μCi [γ-32P]ATP, and 100 μM MgAc/ATP. The total reaction volume was adjusted to 50 μl. The compound of Example 2 was added to the reaction mixture, followed by inducing kinase reaction at 30° C. for 20 minutes. Upon completion of the reaction, the reaction mixture proceeded to electrophoresis on 12% SDS-polyacrylamide gel. Phosphorylation levels of Cdk1 and Cdk2 over the concentrations of the compound of Example 2 were confirmed by autoradiography, and the results are shown in FIG. 1, FIG. 2, and Table 1.
# The intensity of bands was analyzed by densitometry (GS-800, Bio-Rad).
# [4] = tested on: caspase-3 activity in SNU-354 cells; experiment: Measurement of caspase-3 activity (Experimental Example 4); assay type: cell-based, human; design: unit not given here
# Description: SNU-354 cells treated with the compounds of Example 1˜Example 6 were lysed with lysis buffer (0.5% triton X-100, 20 mM Tris-HCl (pH 7.5), 2 mM magnesium chloride, 1 mM DTT, 1 mM EGTA, 50 mM β-glycerophosphate, 25 mM sodium fluoride, 1 mM Na3VO4, 2 μg/mL leupeptin, 2 μg/mL pepstatin A, 100 μg/mL phenylmethylsulfonyl fluoride, 1 μg/mL antipain). The protease analysis buffer necessary for the reaction (20 mM HEPES (pH 7.5), 10% glycerol, 2 mM DTT) was mixed with 20 μM Ac-DEVD-AMC (BD Biosciences, CA, USA) and cell lysates, followed by reaction at 37° C. for 1 hour. Upon completion of the reaction, caspase-3 activity was measured at 380 nm of excitation and 460 nm of emission with spectrofluorometer (TECAN, Switzerland) and the results are shown in FIG. 25 and Table 12.
# SNU-354 cells [5] = experiment: Western blotting of PARP cleavage; assay type: cell-based, human; conditions: FIG. 17
# Description: After treating the compound of Example 2 to SNU-354 cells, cell pellet was lysed with lysis buffer (0.5% triton X-100, 20 mM Tris-HCl (pH 7.5), 2 mM magnesium chloride, 1 mM DTT, 1 mM EGTA, 50 mM β-glycerophosphate, 25 mM sodium fluoride, 1 mM Na3VO4, 2 μg/mL leupeptin, 2 μg/mL pepstatin A, 100 μg/mL phenylmethylsulfonyl fluoride, and 1 μg/mL antipain) at 4° C. for 1 hour, followed by quantification of protein. A proper amount of protein was electrophoresed on SDS-PAGE gel and then transferred onto polyvinylidene difluoride membrane (Millipore Co., Bedford, Mass.). The membrane was reacted in inhibiting solution (PBS, 5% skim milk, 0.1% tween-20) at room temperature for 1˜2 hours. The membrane was reacted with the primary antibody (goat anti-phospho-Rb, rabbit anti-nucleolin) diluted in the inhibiting solution (1:1000). Then, the membrane was washed with PBST, followed by reaction with the proper secondary antibody (horseradish peroxidase (HRP) conjugated) at room temperature for 1 hour.
# Experiment was performed by the same manner as described in step 2 of Experimental Example 2 except that rabbit anti-PARP was used as the primary antibody and the results are shown in FIG. 17.
# T1 sequence (P06493 whole entry): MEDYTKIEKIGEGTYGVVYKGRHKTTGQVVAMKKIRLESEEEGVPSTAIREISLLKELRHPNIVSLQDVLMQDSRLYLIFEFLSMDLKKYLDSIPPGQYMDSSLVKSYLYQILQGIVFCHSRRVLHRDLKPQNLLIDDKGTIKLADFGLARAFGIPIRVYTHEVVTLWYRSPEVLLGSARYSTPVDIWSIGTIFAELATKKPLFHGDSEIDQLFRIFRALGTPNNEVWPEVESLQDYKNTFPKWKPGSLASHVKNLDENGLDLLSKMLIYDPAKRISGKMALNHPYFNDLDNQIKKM
# T1 sequence (P14635 whole entry partner): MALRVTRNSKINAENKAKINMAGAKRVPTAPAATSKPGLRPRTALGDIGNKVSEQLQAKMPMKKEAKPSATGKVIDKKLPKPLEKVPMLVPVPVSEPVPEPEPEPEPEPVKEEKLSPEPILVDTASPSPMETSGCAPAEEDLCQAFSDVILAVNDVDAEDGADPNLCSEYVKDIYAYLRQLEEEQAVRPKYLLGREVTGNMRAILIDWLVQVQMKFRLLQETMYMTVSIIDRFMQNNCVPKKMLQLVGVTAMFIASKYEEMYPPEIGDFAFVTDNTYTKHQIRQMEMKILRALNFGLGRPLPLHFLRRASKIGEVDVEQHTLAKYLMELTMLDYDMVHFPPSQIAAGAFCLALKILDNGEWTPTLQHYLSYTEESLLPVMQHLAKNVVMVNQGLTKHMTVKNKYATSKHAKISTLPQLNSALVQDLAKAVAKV
Phosphorylation (%) Cdk1 (Cdk1/cyclin B; 10 nM),Phosphorylation (%) Cdk1 (Cdk1/cyclin B; 20 nM),Phosphorylation (%) Cdk1 (Cdk1/cyclin B; 40 nM),Phosphorylation (%) Cdk1 (Cdk1/cyclin B; 50 nM),Phosphorylation (%) Cdk1 (Cdk1/cyclin B; 60 nM),Phosphorylation (%) Cdk1 (Cdk1/cyclin B; 80 nM),Phosphorylation (%) Cdk1 (Cdk1/cyclin B; 100 nM),IC50 (Cdk1/cyclin B; histone H1 phosphorylation),SMILES,^3H-thymidine incorporation (%) (SNU-354 cells [1]; 5.0 μM),^3H-thymidine incorporation (%) (SNU-354 cells [1]; 10.0 μM),^3H-thymidine incorporation (%) (SNU-354 cells [1]; 50.0 μM),sub G1 ratio change (SNU-354 cells [2]),TUNEL positive spots and caspase-3 positive spots in xenografted tumor [3],Caspase-3 activity ([4]; 5 μM),Caspase-3 activity ([4]; 10 μM),"PARP cleavage, time from the treatment after which it was caused (SNU-354 cells [5])"
100% and 99.4%,92.2%,74.1%,50%,41.6%,15.3%,4.3%,50 nM,"CC(C)C(=O)OC[C@@H]1O[C@H](n2cnc(N)c3c(C(N)=O)c(Br)nc2-3)[C@H](O)[C@H]1O [Example 2, ((2S,3R,4R,5S)-5-(4-amino-6-bromo-5-carbamoyl-1H-pyrrolo[2,3-d]pyrimidin-1-yl)-3,4-dihydroxy-tetrahydrofuran-2-yl)methyl isobutyrate]",50.7%,20.4%,8%,5.9,observed more,9.7,11.0,6 h
,,,,,,,,"NC(=O)c1c(Br)nc2n([C@H]3O[C@@H](CO)[C@H](O)[C@H]3O)cnc(N)c1-2 [Example 1, 4-amino-6-bromo-1-((2S,3R,4R,5S)-3,4-dihydroxy-5-(hydroxymethyl)-tetrahydrofuran-2-yl)-1H-pyrrolo[2,3-d]pyrimidine-5-carboxamide]",84.0%,35.2%,15.8%,,,8.4,8.1,12 h

# Source: patent US9062088B2, “CDK-inhibiting pyrrolopyrimidine carboxamide derivative or pharmaceutically acceptable salt thereof, and pharmaceutical composition containing the same as active ingredient for preventing or treating hepatocellular carcinoma” (SNU R&DB Foundation, priority 2010, dated 2015)
